Where a name gives a salt, the structure may show the parent alone. Read-outs that look alike come from different tables or passages of the source.
Tests used:
Aβ1-42 = biological target: T1, Aβ1-42 (Homo sapiens, UniProt P05067); assay: Thioflavin T spectrofluorescence assay: inhibition of Aβ1-42 aggregation; type: biochemical
T1 construct: Aβ1-42 lyophilized powder (Bachem) was reconstituted in hexafluoroisopropanol (HFIP) to 1 mM; purchased Bachem
Description: The objective of this example was to evaluate the capacity of the compounds of the invention to inhibit the aggregation of (Aβ)1-42 peptide and to disaggregate pre-aggregated Aβ1-42 using a thioflavin T spectrofluorescence assay.
Aβ1-42 lyophilized powder (Bachem) was reconstituted in hexafluoroisopropanol (HFIP) to 1 mM. The peptide solution was sonicated for 15 min at room temperature, agitated overnight, and aliquots were placed into non-siliconized microcentrifuge tubes. The HFIP was then evaporated under a stream of argon. The resulting peptide film was dried under vacuum for 10 min, tightly sealed and stored at −80° C. until used.
Aβ1-42 peptide film was dissolved in DMSO to reach 400 μM. Assay solution in PBS was prepared in non-siliconized incubation tubes to reach the following concentrations: 330 μM small molecule, 33 μM Aβ1-42, 10 μM thioflavin T (ThT), and 12.8% DMSO. Therefore, the final molar ratio of small molecule to Aβ1-42 was 10:1. A positive control without a small molecule was prepared to measure maximum RFU. A negative control without Aβ1-42 was prepared for each small molecule. 3-aminopyrazole trimer (Trimer) was tested in all assays to ascertain reproducibility between independent experiments. The solutions were then incubated for 24 h at 37° C., and the spectrofluorescence (relative fluorescence units; RFU) read in six replicates in black 384-well assay plates (Perkin-Elmer) on a Perkin-Elmer FluoroCount spectrofluorometer. Inhibition of aggregation is expressed as mean % inhibition±1 standard deviation (SD) according to the following equation: […]

[1] = biological target: T2, Oregon Green labeled Aβ(1-42) (Homo sapiens, UniProt P05067); assay: FCS-assay with 5 nM Oregon Green labeled Aβ-peptide (disaggregation of preformed aggregates); type: biochemical
T2 construct: DMSO-stock solutions of Oregon Green labeled Aβ(1-42) 1:1 with deionized water
T2 sequence (P05067 672-713 limits assumed): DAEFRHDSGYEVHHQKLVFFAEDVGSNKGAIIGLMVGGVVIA
Description: In order to analyse the disaggregating properties of the compounds, preformed aggregates were used, which were induced straight before the FCS-measurement by diluting low concentrated (500 nM) DMSO-stock solutions of Oregon Green labeled Aβ(1-42) 1:1 with deionized water. The final concentration of Oregon Green labeled Aβ-peptide was 5 nM in 1×PBS and 3% DMSO.
To improve the reproducibility of the measurements of the concentration dependencies all samples were prepared fourfold.

[2] = 10:1 small molecule to Aβ1-42 molar ratio
[3] = Table 4, 10:1 small molecule to Aβ1-42 molar ratio, 24 h at 37° C., mean ± SD of 2 independent experiments, read-out: % inhibition
[4] = read-out: Percentage of the “number of peaks” value compared to the control reaction without added ligand
[5] = read-out: Percentage of the “peaks × height“ value compared to the control reaction without added ligand
[6] = Table 3, 10:1 small molecule to Aβ1-42 molar ratio, 24 h at 37° C., mean ± SD of two independent experiments, read-out: % Inhibition

T1 sequence (P05067 672-713 limits assumed): as above

Work on Cc1ccc(-c2cc(NCCNc3cc(-c4ccc(Cl)cc4)[nH]n3)n[nH]2)cc1 (as salt: hydrochloride) [Compound 1ae, N-(5-(4-Chlorophenyl)-1H-pyrazol-3-yl)-N′-(5-p-tolyl-1H-pyrazol-3-yl)ethane-1,2-diamine bishydrochloride] yielded a melting point of 182 °C.

Clc1ccc(-c2cc(NCCNc3cc(-c4cccs4)[nH]n3)n[nH]2)cc1 (as salt: hydrochloride) [Compound 1ah, N-(5-(4-Chlorophenyl)-1H-pyrazol-3-yl)-N′-(5-(thiophen-2-yl)-1H-pyrazol-3-yl)ethane-1,2-diamine bishydrochloride] gave a melting point of 139 °C.

Work on FC(F)(F)c1cccc2[nH]nc(NCCNc3n[nH]c4cccc(C(F)(F)F)c34)c12 (as salt: hydrochloride) [Compound 1ai, N,N′-bis(4-(Trifluoromethyl)-1H-indazol-3-yl)ethane-1,2-diamine bishydrochloride] yielded a melting point of 222 °C.

With Fc1ccc(-c2cc(NCCNc3cc(-c4ccc(F)cc4)[nH]n3)n[nH]2)cc1 (as salt: hydrochloride) [Compound 1ak, N^1,N^2-bis(5-(4-Fluorophenyl)-1H-pyrazol-3-yl)ethane-1,2-diamine bishydrochloride] the melting point was 239 to 240 °C.

Compound Cc1cc(NC(=O)C(=O)Nc2cc(C)[nH]n2)n[nH]1 [Ampox, reference compound] has an inhibition at 330 µM (Aβ1-42; 24 h) of 38.7 ± 5.2%.

Cc1cc(NCCNc2cc(C)[nH]n2)n[nH]1 [Compound 1a, N^1,N^2-bis(5-Methyl-1H-pyrazol-3-yl)ethane-1,2-diamine bishydrochloride] gave an inhibition at 330 µM (Aβ1-42; 24 h) of 37.6 ± 0.7%.

In the case of FC(F)(F)c1cccc2[nH]nc(NCCNc3n[nH]c4cccc(C(F)(F)F)c34)c12 [Compound 1ai, N,N′-bis(4-(Trifluoromethyl)-1H-indazol-3-yl)ethane-1,2-diamine bishydrochloride], the “inhibition of Aβ1-42 aggregation, in words” value (“inhibition … in words” below) (Aβ1-42; [2]) is reported as “strong inhibition of aggregation” and the inhibition at 330 µM (Aβ1-42; 24 h) is reported as 50.4 ± 8.4%.

In the case of CN(C)c1ccc(-c2cc(NCCNc3cc(-c4ccc(N(C)C)cc4)[nH]n3)n[nH]2)cc1.Cl.Cl [Compound 1aj, N^1,N^2-bis(5-(4-(Dimethylamino)phenyl)-1H-pyrazol-3-yl)ethane-1,2-diamine bishydrochloride], the remaining activity at 0.2 µM ([1]; 200 nM compound, 5 nM labeled Aβ-peptide, read-out: Percentage of the “number of peaks” value compared to the control reaction without added ligand) is reported as 57.4%, the remaining activity at 0.2 µM ([1]; 200 nM compound, 5 nM labeled Aβ-peptide, read-out: Percentage of the “peaks × height“ value compared to the control reaction without added ligand) is reported as 61.9% and the “inhibition … in words” value (Aβ1-42; [2]) is reported as “strong inhibition of aggregation”. It also gave an inhibition at 330 µM (Aβ1-42; [3]) of 79.1 ± 4.8%.

In the case of Fc1ccc(-c2cc(NCCNc3cc(-c4ccc(F)cc4)[nH]n3)n[nH]2)cc1 [Compound 1ak, N^1,N^2-bis(5-(4-Fluorophenyl)-1H-pyrazol-3-yl)ethane-1,2-diamine bishydrochloride], the remaining activity at 0.1 µM [1, 4] is reported as 57.4%, the remaining activity at 0.2 µM [1, 4] is reported as 51% and the remaining activity at 0.1 µM [1, 5] is reported as 43.3%. For the same compound, the remaining activity at 0.2 µM [1, 5] was 44.8%, the “inhibition … in words” value (Aβ1-42; [2]) was “strong inhibition of aggregation” and the inhibition at 330 µM (Aβ1-42; 24 h) was 74 ± 5.9%.

With c1ccc(-c2cc(NCCNc3cc(-c4ccccn4)[nH]n3)n[nH]2)nc1 [Compound 1al, N^1,N^2-bis(5-(Pyridin-2-yl)-1H-pyrazol-3-yl)ethane-1,2-diamine tetra-hydrochloride] the remaining activity at 0.2 µM [1, 4] was 57.9%, the remaining activity at 0.2 µM [1, 5] was 48% and the “inhibition … in words” value (Aβ1-42; [2]) was “strong inhibition of aggregation”. It also gave an inhibition at 330 µM (Aβ1-42; 24 h) of 90.1 ± 4.7%.

With Cc1ccc(-c2cc(NCC(C)(C)CNc3cc(-c4ccc(C)cc4)[nH]n3)n[nH]2)cc1 [Compound 1an, dihydrochloride] the “inhibition … in words” value (Aβ1-42; [2]) was “strong inhibition of aggregation” and the inhibition at 330 µM (Aβ1-42; 24 h) was 55.9 ± 7.4%.

Cc1ccc(-c2cc(NCc3cccc(CNc4cc(-c5ccc(C)cc5)[nH]n4)c3)n[nH]2)cc1 [Compound 1ao, N,N′-(1,3-Phenylenebis(methylene))bis(5-p-tolyl-1H-pyrazol-3-amine) dihydrochloride] showed an inhibition at 330 µM (Aβ1-42; 24 h) of 72.9 ± 0.7%.

For Cc1ccc(-c2cc(NCc3ccc(CNc4cc(-c5ccc(C)cc5)[nH]n4)cc3)n[nH]2)cc1 [Compound 1ap, N,N′-(1,4-Phenylenebis(methylene))bis(5-p-tolyl-1H-pyrazol-3-amine) dihydrochloride], the “inhibition … in words” value (Aβ1-42; [2]) was “strong inhibition of aggregation” and the inhibition at 330 µM (Aβ1-42; 24 h) was 66.2 ± 1.6%.

For Cc1ccc(-c2cc(NCc3cccc(CNc4cc(-c5ccc(C)cc5)[nH]n4)n3)n[nH]2)cc1 [Compound 1aq, N,N′-(Pyridine-2,6-diylbis(methylene))bis(5-p-tolyl-1H-pyrazol-3-amine) trishydrochloride], the inhibition at 330 µM (Aβ1-42; 24 h) was 82.9 ± 2.7%.

In the case of c1cc(NCCNc2cc[nH]n2)n[nH]1 [Compound 1b, N^1N^2-bis(1H-Pyrazol-3-yl)ethane-1,2-diamine bishydrochloride], the inhibition at 330 µM (Aβ1-42; [6]) is reported as 9.7 ± 0.3%.

Cc1[nH]nc(NCCNc2n[nH]c(C)c2-c2ccccc2)c1-c1ccccc1 [Compound 1c, N^1,N^2-bis(5-Methyl-4-phenyl-1H-pyrazol-3-yl)ethane-1,2-diamine bishydrochloride] gave an inhibition at 330 µM (Aβ1-42; 24 h) of 52.7 ± 1.3%.

With c1ccc(-c2cc(NCCNc3cc(-c4ccccc4)[nH]n3)n[nH]2)cc1 [Compound 1e, N^1,N^2-bis(5-Phenyl)-1H-pyrazol-3-yl)ethane-1,2-diamine bishydrochloride] the “inhibition … in words” value (Aβ1-42; [2]) was “strong inhibition of aggregation” and the inhibition at 330 µM (Aβ1-42; [3]) was 82.5 ± 5.8%.

Work on c1csc(-c2cc(NCCNc3cc(-c4cccs4)[nH]n3)n[nH]2)c1 [Compound 1h, N^1,N^2-bis(5-(2-Thienyl)-1H-pyrazol-3-yl)ethane-1,2-diamine bishydrochloride] yielded an inhibition at 330 µM (Aβ1-42; 24 h) of 69.9 ± 1.4%.

Compound c1c(NCCNc2cc(C3CC3)[nH]n2)n[nH]c1C1CC1 [Compound 1i, N^1,N^2-bis(5-Cyclopropyl-1H-pyrazol-3-yl)ethane-1,2-diamine bishydrochloride] has an inhibition at 330 µM (Aβ1-42; 24 h) of 53.6 ± 27%.

CC(C)(C)c1cc(NCCNc2cc(C(C)(C)C)[nH]n2)n[nH]1 [Compound 1j, N^1,N^2-bis(5-tert-Butyl-1H-pyrazol-3-yl)ethane-1,2-diamine bishydrochloride] gave an inhibition at 330 µM (Aβ1-42; 24 h) of 11.5 ± 2.9%.

For Cc1cc(NCCNc2n[nH]c(C)c2-c2ccc(Cl)cc2)n[nH]1 [Compound 1k, N,N′-(4-(4-Chlorophenyl)-5-methyl-1H-pyrazol-3-yl-N′-(5-methyl-1H-pyrazol-3-yl)ethane-1,2-diaminebishydrochloride], the inhibition at 330 µM (Aβ1-42; Table 5, 10:1 small molecule to Aβ1-42 molar ratio, 24 h at 37° C., mean ± SD of two independent experiments, read-out: % inhibition) was 40.4 ± 13%.

For c1ccc(Cc2cc(NCCNc3cc(Cc4ccccc4)[nH]n3)n[nH]2)cc1 [Compound 1l, N^1,N^2-bis(5-Benzyl-1H-pyrazol-3-yl)ethane-1,2-diamine dihydrochloride], the inhibition at 330 µM (Aβ1-42; 24 h) was 57.5 ± 7.6%.

In the case of c1coc(-c2cc(NCCNc3cc(-c4ccco4)[nH]n3)n[nH]2)c1 [Compound 1m, N^1,N^2-bis(5-(2-Furyl)-1H-pyrazol-3-yl)ethane-1,2-diamine bishydrochloride], the “inhibition … in words” value (Aβ1-42; [2]) is reported as “strong inhibition of aggregation” and the inhibition at 330 µM (Aβ1-42; 24 h) is reported as 52.9 ± 2.7%.

In the case of c1ccc(Cc2c[nH]nc2NCCNc2n[nH]cc2Cc2ccccc2)cc1 [Compound 1q, N^1,N^2-bis(4-Benzyl-1H-pyrazol-3-yl)ethane-1,2-diamine dihydrochloride], the inhibition at 330 µM (Aβ1-42; 24 h) is reported as 59.2 ± 4.9%.

For c1csc(-c2c[nH]nc2NCCNc2n[nH]cc2-c2cccs2)c1 [Compound 1r, N^1,N^2-bis(4-(Thiophen-2-yl)-1H-pyrazol-3-yl)ethane-1,2-diamine bishydrochloride], the inhibition at 330 µM (Aβ1-42; 24 h) was 49.5 ± 0.8%.

Clc1ccc(-c2c[nH]nc2NCCNc2n[nH]cc2-c2ccc(Cl)cc2)cc1 [Compound 1s, N^1,N^2-bis(4-(4-Chlorophenyl)-1H-pyrazol-3-yl)ethane-1,2-diamine bishydrochloride] showed an inhibition at 330 µM (Aβ1-42; 24 h) of 66.6 ± 4.1%.

In the case of COc1ccc(-c2c(NCCNc3n[nH]c(C)c3-c3ccc(OC)cc3)n[nH]c2C)cc1 [Compound 1t, N^1,N^2-bis(5-Methyl-4-methoxyphenyl)-1H-pyrazol-3-yl)ethane-1,2-diamine dihydrochloride], the inhibition at 330 µM (Aβ1-42; 24 h) is reported as 31.4 ± 0.5%.

Compound c1[nH]nc(NCCNc2n[nH]cc2C2CC2)c1C1CC1 [Compound 1v, N^1,N^2-bis(4-Cyclopropyl-1H-pyrazol-3-yl)ethane-1,2-diamine bishydrochloride] has an inhibition at 330 µM (Aβ1-42; 24 h) of 15.3 ± 2.9%.

Work on Cc1cc(NCC(=O)Nc2cc(C)[nH]n2)n[nH]1 [Compound 1w, N-(5-Methyl-1H-pyrazol-3-yl)-2-(5-methyl-1H-pyrazol-3-ylamino)acetamide] yielded an inhibition at 330 µM (Aβ1-42; [6]) of 7.3 ± 10.4%.
